T1: CARM1/PRMT4 (Mus musculus, UniProt Q9WVG6)
T1 sequence (Q9WVG6 1-608): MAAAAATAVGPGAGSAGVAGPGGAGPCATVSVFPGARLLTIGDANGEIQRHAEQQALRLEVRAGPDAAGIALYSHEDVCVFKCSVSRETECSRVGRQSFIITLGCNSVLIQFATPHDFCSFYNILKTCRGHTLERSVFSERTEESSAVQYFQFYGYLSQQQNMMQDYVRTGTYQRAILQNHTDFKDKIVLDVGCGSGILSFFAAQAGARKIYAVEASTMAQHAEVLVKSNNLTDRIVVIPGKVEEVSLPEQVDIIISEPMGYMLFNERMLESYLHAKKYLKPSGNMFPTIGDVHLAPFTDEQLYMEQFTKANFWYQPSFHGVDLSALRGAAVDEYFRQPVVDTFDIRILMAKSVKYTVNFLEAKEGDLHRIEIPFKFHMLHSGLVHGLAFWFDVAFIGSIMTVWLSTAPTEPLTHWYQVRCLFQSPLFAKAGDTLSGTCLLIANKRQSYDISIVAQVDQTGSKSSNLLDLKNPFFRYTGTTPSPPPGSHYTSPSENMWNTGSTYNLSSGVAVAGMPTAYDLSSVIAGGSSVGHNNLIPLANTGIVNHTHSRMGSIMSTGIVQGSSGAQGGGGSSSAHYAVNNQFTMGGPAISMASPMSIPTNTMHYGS

T2: CARM1 (Mus musculus, UniProt Q9WVG6)
T2 sequence (Q9WVG6 1-608): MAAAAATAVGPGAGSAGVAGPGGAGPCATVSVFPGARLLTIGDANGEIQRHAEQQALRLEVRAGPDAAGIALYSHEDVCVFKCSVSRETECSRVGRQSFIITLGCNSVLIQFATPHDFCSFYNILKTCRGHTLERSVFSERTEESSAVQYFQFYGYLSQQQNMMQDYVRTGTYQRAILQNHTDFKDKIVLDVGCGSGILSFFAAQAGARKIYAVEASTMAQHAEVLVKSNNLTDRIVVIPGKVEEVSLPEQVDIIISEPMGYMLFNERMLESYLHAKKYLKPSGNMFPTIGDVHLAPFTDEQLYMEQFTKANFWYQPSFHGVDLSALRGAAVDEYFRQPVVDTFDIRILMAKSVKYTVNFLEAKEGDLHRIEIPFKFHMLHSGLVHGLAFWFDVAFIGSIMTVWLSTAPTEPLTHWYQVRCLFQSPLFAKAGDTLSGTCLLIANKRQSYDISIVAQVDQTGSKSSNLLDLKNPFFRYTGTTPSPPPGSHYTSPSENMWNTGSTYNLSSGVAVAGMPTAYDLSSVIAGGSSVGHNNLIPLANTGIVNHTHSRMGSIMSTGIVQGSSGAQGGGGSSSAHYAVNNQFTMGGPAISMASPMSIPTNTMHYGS

T3: full length GST-tagged CARM1 (UniProt Q9WVG6 1-608)
T3 sequence (looked up): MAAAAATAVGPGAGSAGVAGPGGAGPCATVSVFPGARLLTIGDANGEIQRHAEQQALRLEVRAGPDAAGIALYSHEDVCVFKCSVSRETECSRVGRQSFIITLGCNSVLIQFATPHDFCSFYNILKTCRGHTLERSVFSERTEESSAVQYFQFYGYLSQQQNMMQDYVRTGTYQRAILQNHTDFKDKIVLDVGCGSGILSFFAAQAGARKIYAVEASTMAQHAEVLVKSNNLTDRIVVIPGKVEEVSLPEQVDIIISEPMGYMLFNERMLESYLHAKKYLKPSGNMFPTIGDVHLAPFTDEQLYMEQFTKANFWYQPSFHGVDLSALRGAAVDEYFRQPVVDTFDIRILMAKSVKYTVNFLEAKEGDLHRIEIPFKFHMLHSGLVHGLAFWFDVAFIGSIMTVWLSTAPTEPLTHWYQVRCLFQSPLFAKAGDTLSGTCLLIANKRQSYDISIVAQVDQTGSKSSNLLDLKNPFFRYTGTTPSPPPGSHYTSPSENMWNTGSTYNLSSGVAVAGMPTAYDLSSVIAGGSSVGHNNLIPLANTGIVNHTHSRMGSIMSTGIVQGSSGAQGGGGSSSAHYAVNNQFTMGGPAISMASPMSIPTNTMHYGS


Tests used:
[1] = biological target: PABP1(437–488) (Homo sapiens, UniProt P11940); test: SPR binding to immobilized PABP1; conditions: compounds injected at 50–10000 nM
[2] = biological target: T1, CARM1/PRMT4; test: CARM1 in vitro methylation assay, PABP1 as substrate; type: biochemical; conditions: 3, 6, 12, 25, 50 and 100 µM
[3] = biological target: T2, CARM1; test: SPR binding to immobilized full length GST-tagged CARM1; conditions: for Effect on affinity of substrate (H3 or PABP1) for CARM1/SAH complex: 4 µM compound, 200 µM SAH; for Interaction with immobilized CARM1 (in words): 50–10000 nM, in the presence and in absence of SAH
[4] = tested on: calf thymus histone H3; test: SPR binding to immobilized histone H3; conditions: compounds injected at 50–10000 nM
[5] = biological target: T1, CARM1/PRMT4; test: CARM1 in vitro methylation assay, histone H3 as substrate; type: biochemical; conditions: 50 µM
[6] = biological target: human recombinant PRMT1 (hPRMT1) (Homo sapiens, UniProt Q99873); test: PRMT1 in vitro inhibition assay, Npl3 as substrate; conditions: fixed doses of 10 µM and 50 µM
[7] = tested on: CARM1 (fPABP1 methylation) in HEK293 cells; test: Cellular methylation assay, Tet-inducible fPABP1 in HEK293 cells; type: cell-based, human; conditions: HEK293, Tet-induced fPABP1; 50 µM compound; 24 h; anti-methyl-PABP1 immunoblot
[8] = biological target: T3, full length GST-tagged CARM1; test: SPR

human recombinant PRMT1 (hPRMT1), sequence (Q99873 whole entry): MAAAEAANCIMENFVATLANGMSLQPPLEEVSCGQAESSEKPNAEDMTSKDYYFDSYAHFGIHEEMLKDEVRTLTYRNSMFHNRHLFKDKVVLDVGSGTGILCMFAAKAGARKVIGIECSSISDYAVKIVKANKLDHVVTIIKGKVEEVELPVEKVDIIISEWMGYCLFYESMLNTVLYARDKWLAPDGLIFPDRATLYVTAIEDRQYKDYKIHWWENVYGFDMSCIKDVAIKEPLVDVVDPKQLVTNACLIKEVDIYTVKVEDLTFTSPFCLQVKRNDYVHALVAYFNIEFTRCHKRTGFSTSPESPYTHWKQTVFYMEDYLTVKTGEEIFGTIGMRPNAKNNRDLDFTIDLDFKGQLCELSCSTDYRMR

Molecule	Interaction with immobilized PABP1(437–488) (in words) [1]	Effect on CARM1 enzyme activity, dose dependence [2]	Effect on affinity of substrate (H3 or PABP1) for CARM1/SAH complex [3]	Interaction with immobilized CARM1 (in words) [3]	Effect on CARM1-catalyzed H3 methylation (in words) [5]	Inhibition of PRMT1 [6]	Kd [8] [nM]	Interaction with immobilized histone H3 (in words) [4]	Methylation of fPABP1 in cells [7]
CCOC(=O)c1cc2cc(NC(=O)CNC(=O)Nc3ccc([N+](=O)[O-])cc3)ccc2[nH]1 [1k, ethyl 5-(2-(3-(4-nitrophenyl)ureido)acetamido)-1H-indole-2-carboxylate]	no interaction	marked and dose-dependent increase	affects the affinity	no interaction	marked activation	scarcely active		no interaction	
CCOC(=O)c1cc2cc(NC(=O)CNC(=O)Nc3ccc(C)cc3)ccc2[nH]1 [3c, ethyl 5-(2-(3-(p-tolyl)ureido)acetamido)-1H-indole-2-carboxylate]	no interaction		significantly affect the affinity	no interaction				no interaction	strongly increase the methylation
COC(=O)c1c[nH]c2ccc(NC(=O)CNC(=O)Nc3ccc(OC)cc3)cc12 [4e, methyl 5-(2-(3-(4-methoxyphenyl)ureido)acetamido)-1H-indole-3-carboxylate]	no interaction		significantly affect the affinity	no interaction				no interaction	
O=C(Nc1ccc2c(O)cc(S(=O)(=O)O)cc2c1)Nc1ccc2c(O)cc(S(=O)(=O)O)cc2c1 [AMI-1, reference compound]	barely perceptible								

Further lines, with some results ahead:

Interaction with immobilized PABP1(437–488) (in words) [1]	Effect on CARM1 enzyme activity, dose dependence [2]	Effect on affinity of substrate (H3 or PABP1) for CARM1/SAH complex [3]	Interaction with immobilized CARM1 (in words) [3]	Effect on CARM1-catalyzed H3 methylation (in words) [5]	Inhibition of PRMT1 [6]	Kd [8] [nM]	Molecule	Interaction with immobilized histone H3 (in words) [4]	Methylation of fPABP1 in cells [7]
no interaction		affects the affinity	no interaction				CCOC(=O)c1cc2cc(NC(=O)CNC(=O)Nc3ccc(C#N)cc3)ccc2[nH]1 [3g, ethyl 5-(2-(3-(4-cyanophenyl)ureido)acetamido)-1H-indole-2-carboxylate]	no interaction	strongly increase the methylation
barely perceptible							O=c1oc2c(O)c(O)cc3c(=O)oc4c(O)c(O)cc1c4c23 [ellagic acid, reference compound]		
						158	PABP1(437–488) (domain or fragment, human, UniProt P11940 437-488, looked up) WTAQGARPHPFQNMPGAIRPAAPRPPFSTMRPASSQVPRVMSTQRVANTSTQ		

Reference: publication PMC3508294 (Journal of medicinal chemistry, 2012)
